Measurements published in ChEMBL document CHEMBL1157539, “Thousands of chemical starting points for antimalarial lead identification” (Nature, 2010).

System: Plasmodium falciparum
Test: GSK_TCMDC: Inhibition of Plasmodium falciparum 3D7 in whole erythrocytes, using parasite LDH activity as an index of growth.
Format: functional, organism-based
Details: Plasmodium falciparum, 3D7

SMILES | XC50 [nM]
Cc1[nH]c2ccc(O)cc2c1C1CCN(CCCCCNC(=O)/C=C/c2ccc(Cl)c(Cl)c2)CC1 | 771
OC(CNCc1ccccc1Oc1ccccc1)c1cc(Br)cs1 (stereo not drawn) | 1110
CC(C)Nc1ccc(Nc2ccnc3cc4ccccc4cc23)cc1 | 142
O=C(Nc1cc(Cl)ccc1O)c1cnn2c(C(F)(F)F)cc(-c3cccs3)nc12 | 859
CC(=O)NCCNCc1cccc(C(=O)NCc2cccc(C(F)(F)F)c2)c1 | 1080
CCNc1cc(C(=O)N[C@@H](Cc2ccccc2)[C@H](O)CNCCc2ccccc2)cc(N2CCCCS2(=O)=O)c1 | 936
CN1CCC(N(Cc2ccc(N3CCN(Cc4c[nH]c5ccc(Cl)cc45)CC3)nc2)C2CC2)CC1 | 999
CN(C)CCOc1cc(NC(=O)Nc2ccc(-c3ccccc3)cc2)ccc1I | 595
Clc1ccc2nccc(N3CCC(CN4CCC(c5c[nH]c6ccccc56)CC4)CC3)c2c1 | 33.9
CC(C)CN1CCC(N(C)c2cc(NC(=O)c3cccc(F)c3)ccn2)CC1 | 848
Cc1cccc2nc(-c3cccc(-c4ccc(NC(=O)Cc5ccon5)cc4)c3)[nH]c12 | 1090
COc1ccc(Cl)cc1N1CCN(CCCNC(=O)c2ccc(-c3nc4cc(Cl)c(F)cc4[nH]3)c(F)c2)CC1 | 1110
COc1ccc(NCCCNc2ccnc3ccccc23)cc1 | 966
CC(CCc1ccccc1)NCC(O)c1cccc(C(F)(F)F)c1 (stereo not drawn) | 709
Cc1ccc(-c2nc3cc(C(=O)NC4CCC(N5CCCc6ccc(C#N)cc6C5)CC4)ccc3[nH]2)cc1 (stereo not drawn) | 1360
c1ccc(CCNCc2ccc(-c3ccc(CNCc4ccc5c(c4)OCO5)cc3)nc2)cc1 | 1250
Cc1ccc(NC(=O)c2ccc(Cl)c(Cl)c2)cc1-c1ccc(C(=O)Nc2ccncc2)cc1 | 567
N#CC(CC(=O)c1ccc(Cl)cc1)c1cccc(F)c1 (stereo not drawn) | 854
Nc1ncc(-c2ccc3ncccc3c2)c(N)n1 | 918
O=C(Nc1cccc(-c2nn3ccccc3c2-c2ccnc(Nc3ccc(NCCCN4CCOCC4)c(F)c3)n2)c1)c1c(F)cccc1F | 259
N=C1C=C(N)C(=O)c2ccccc21 | 1050
COc1ccc2nccc([C@@H](O)CN3CCC(NCc4cc5ccccc5[nH]4)CC3)c2n1 | 628
Cc1cc(C(=O)CN2C(=O)NC(C)(c3ccc4ccccc4c3)C2=O)c(C)n1Cc1ccco1 (stereo not drawn) | 661
Oc1ccc(C=NNC(S)=Nc2cccc3ccccc23)c(O)c1 | 1040
CN(C)CCCNCc1ccc(-c2ccc(F)c(Cl)c2)o1 | 802

SMILES | XC50 [nM]
CSc1c(CNCCCNc2cc(=O)c3ccccc3[nH]2)[nH]c2ccccc12 | 1120
CCOc1ccc(-c2nc(NC(=O)Cc3cccc(OC)c3)sc2C)cc1 | 730
C=CCN1CCC(N(Cc2cccc(Oc3ccccc3)c2)C(=O)C(c2ccccc2)c2ccccc2)CC1 | 1140
N=C(N)Nc1nc(-c2cccc(NC(=O)C(F)(F)F)c2)cs1 | 1050
Cc1cc(NCC(c2ccccc2)c2ccccc2)nc(NCC2CCCCC2)n1 | 507
O=C(Nc1cccc(CN2CCN(C(=O)c3cccc(F)c3)CC2)c1)c1ccco1 | 775
Cc1ccc(CN2CCCN(Cc3cccc(NC(=O)c4cc5ccccc5s4)c3)CC2)cc1C | 735
O=C(Nc1ccc(Oc2ccccc2)cc1)NC1CCC(CN2CCC(c3c[nH]c4ccccc34)CC2)CC1 (stereo not drawn) | 573
COc1cc(F)c2ncc(Cl)c(CCN3CCC(NCc4ccc5c(n4)NC(=O)CO5)CC3)c2c1 | 504
CC[C@H]1CN(Cc2ccccc2Br)CC[C@H]1CCCc1ccnc2ccc(O)cc12 | 1000
CN1CCN(Cc2cccc(Nc3nccc(Nc4ccc(Oc5ccccc5)cc4)n3)c2)CC1 | 296
COc1ccc2nccc([C@@H](O)CN3CCC(NCc4cnc5c(c4)NC(=O)CS5)C(F)C3)c2c1 (stereo partly drawn) | 769
CN(C)CCN(Cc1ccccc1-c1ccc(CNCCc2ccccc2)cc1)C(=O)NC1CCCCC1 | 906
COCCN1CCN(Cc2ccc(-c3cccc(-c4nc5ccccc5[nH]4)c3)cc2)CC1 | 1110
COc1ccc(-c2cnc3ccc(N4CCCC4)nn23)cc1OC | 772
COc1ccc2nccc([C@H](O)CN3CCC(NCc4nc5cccc(F)c5[nH]4)CC3)c2c1 | 705
Fc1ccc2[nH]c(-c3cccc(-c4ccc(CN5CCN(c6cnccn6)CC5)cc4)c3)nc2c1 | 893
O=C(Nc1cccc(C(F)(F)F)c1)NC1CCN(c2ccnc3ccccc23)C1 (stereo not drawn) | 289
Cc1cc(=O)c(-c2ccc(Oc3ccc(Cl)cc3Cl)cc2)c(C)[nH]1 | 841
CC(=O)N(C)c1ccc(C(=O)Nc2cccc(-c3cccc(-c4nc5cc(C(F)(F)F)ccc5[nH]4)c3)c2)cc1 | 314
CCc1cn2c3c(cc(C(=O)N[C@@H](Cc4cccc(F)c4)[C@H](O)CNC4CCCCC4)cc13)N(C)S(=O)(=O)CC2 | 29.7
CS(=O)(=O)Nc1cccc(-c2cnc3[nH]cc(-c4cccc(CN)c4)c3c2)c1 | 1660
Cc1[nH]c2ccccc2c1C1=CCN(CCCCC23CCCc4cccc(c42)NC3=O)CC1 (stereo not drawn) | 231
Cc1ccc(S(=O)(=O)N(CCCN2CCN(C)CC2)Cc2csc(-c3ccc(CNCc4ccccc4)cc3)n2)cc1 | 841
O=C(Nc1cccc(-c2ccc(-c3nc4ccccc4[nH]3)cc2)c1)Nc1ccc2c(c1)OCO2 | 671

SMILES | XC50 [nM]
Cc1cc2nc(-c3ccc(/C=C/C(=O)NCCc4ccccc4)cc3)[nH]c2cc1C | 779
CC(C)C[C@H](NC(=O)c1ccc(OCCN2CCOCC2)cc1)C(=O)N[C@H](/C=N/N1CC(=O)NC1=O)CCc1ccccc1 | 277
Brc1ccc(Nc2nc3ccccc3nc2Nc2ccc(Br)cc2)cc1 | 783
NC1CCN(Cc2cccc(-c3ccc(-c4nc5cc(F)ccc5[nH]4)cc3)c2)C1 (stereo not drawn) | 596
O=[N+]([O-])c1cccc(CNCC2CCC(CNCc3cccc([N+](=O)[O-])c3)CC2)c1 (stereo not drawn) | 138
CCN(CC)CCCNC(=O)/C(=C/C=C/c1cc2cc(Cl)c(Cl)cc2[nH]1)OC | 1160
Cc1cccc(Cl)c1Nc1nnc(-c2cccc(C(=O)NC[C@@H]3CC[C@H]4C[C@@H]3C4(C)C)c2)o1 | 273
CCNC(=O)Nc1cccc(-c2cccc(-c3nc4cccc(C)c4[nH]3)c2)c1 | 1040
Cc1cccn2c(=O)c3cc(C(=O)NCCN4CCOCC4)c(=N)n(CCc4ccccc4)c3nc12 | 468
COc1ccc2nccc([C@@H](O)CN3CCC(NC(=O)/C=C/c4cccc(C)c4)CC3)c2c1 | 1250
COc1ccc(CCNC(=O)c2cc(C)ccc2O)cc1-c1ccc(C(C)(C)C)cc1 | 482
Cc1ccccc1C1CCN(c2ccc(C(=O)Nc3ccccc3)cn2)CC1 | 327
CCOc1cc(C)ccc1C1CCN(CCCCNC(=O)c2nc(-c3ccc(C(F)(F)F)cc3)[nH]c2C)CC1 | 729
Cc1c(CN2CCC(N3CCC(C(=O)NC4CC4)CC3)CC2)[nH]c2c(Cl)cccc12 | 1190
O=C(Nc1ccc(C(=O)OCC2CCCCC2)cc1)N[C@@H](Cc1ccc(O)cc1)C(=O)NC1CCN(Cc2ccc(O)cc2)C1 (stereo partly drawn) | 874
O=C(NCCCNc1ccnc2cc(Cl)ccc12)c1ccccc1F | 315
COc1ccc(CNCCCCCCNCCc2ccc(Cl)cc2)cc1OC | 1390
COc1ccc2nc3cc(Cl)ccc3c(NCc3ccccc3)c2c1 | 866
CCCc1cc(=O)[nH]c(-n2nc(C)cc2NC(=O)CC(c2ccccc2)c2ccccc2)n1 | 618
CC(C)(C)OC(=O)NCc1ccc(Nc2nnc(-c3ccc(OCC(=O)NCc4cc(C(F)(F)F)cc(C(F)(F)F)c4)c([N+](=O)[O-])c3)o2)cc1 | 460
COc1cccc(CN2Cc3ccccc3OC3(CCN(Cc4c[nH]c5cnccc45)CC3)C2)c1 | 1300
Cc1ccc(NC(C)C(=O)Nc2ccccc2)cc1S(=O)(=O)N1CCCCCC1 (stereo not drawn) | 62.4
O=C(NCc1ccc(C(=O)NC2CCCCCC2)cc1)c1ccc(O)c(-c2ccc(Cl)c(Cl)c2)c1 | 1060
O=C(Nc1ccc2ccccc2c1)N(CCCn1ccnc1)Cc1csc(-c2ccc(CNCc3ccccc3)cc2)n1 | 739
CN(C)CCNc1cc(-c2cccnc2)nc(-c2ccncc2)n1 | 596

SMILES | XC50 [nM]
COc1ccc(CN2CCCN(Cc3cccc(C(=O)Nc4ccc(C(C)(C)C)cc4)c3)CC2)cc1 | 891
N#Cc1ccc(N2C[C@@H](OCc3ccccc3)C[C@H]2C(=O)NCCC(c2ccccc2)c2ccccc2)c2ccccc12 | 856
OC(CNCc1ccccc1Oc1ccccc1)c1cccc(C(F)(F)F)c1 (stereo not drawn) | 713
COc1ccc(-c2cccc(NC(=O)c3ccc(C#N)cc3)c2)cc1CN1CCCC1 | 696
Cc1cc(N2CCCC2=O)ccc1-c1ccc(C(=O)N2CCC(Oc3cccc(Cl)c3)CC2)cc1 | 427
Nc1nc(N)c2c(ccc3c2ccn3CCCC(F)(F)F)n1 | 98
CN(CCCNCc1ccc2ccccc2c1)CCCNCc1ccc2ccccc2c1 | 391
S=C(Nc1ccccc1Cl)NC1CCC(CN2CCC(c3c[nH]c4ccccc34)CC2)CC1 (stereo not drawn) | 1050
CCCOc1ccc(C(=O)Nc2nonc2-c2ccc(OC)c(OC)c2)cc1 | 991
NC1CCN(Cc2ccc(-c3cccc(-c4nc5cc(F)ccc5[nH]4)c3)cc2)C1 (stereo not drawn) | 759
CNC(=O)C1Cc2c([nH]c3cc(Cl)ccc23)C2(CCN(CCc3ccccc3)CC2)N1 (stereo not drawn) | 934
Cc1cccc(CN2CCCN(Cc3cccc(C(=O)Nc4ccc(C(C)(C)C)cc4)c3)CC2)c1 | 934
NOCCCCOc1ccccc1 | 177
Cc1ccc(Oc2c(-c3ccccc3CN3CCCC3CN(C)C)cnn(C)c2=O)cn1 (stereo not drawn) | 1160
O=C(/C=C/c1ccc(Cl)c(Cl)c1)NCCCCCN1CCC(NC(=O)c2ccc(F)cc2)CC1 | 706
CC(C)CCCC(C)(C)NC[C@@H](O)[C@H](Cc1ccccc1)NC(=O)c1cccc(CCC2CC2)c1 | 796
O=C(NCC1CCN(Cc2cccc(C(F)(F)F)c2)C1)c1cc(-c2cccc(F)c2)cs1 (stereo not drawn) | 1180
Cc1csc2nc(-c3ccccn3)nc(Nc3ccncn3)c12 | 786
O=C(CC1SC(N2N=C(c3cccs3)CC2c2ccccc2)=NC1=O)Nc1ccccc1F (stereo not drawn) | 1090
CC(C)Nc1nc(NCCc2c[nH]cn2)nc(NCc2cccc3ccccc23)n1 | 1010
COc1ccc(Nc2nccc(NCCNC(=O)Nc3cc(C)ccc3C)n2)cc1 | 1050
Cc1nc(C)c(CC(=O)Nc2cccc(-c3cccc(-c4nc5cc(C(F)(F)F)ccc5[nH]4)c3)c2)s1 | 827
Cc1cc(F)ccc1Nc1nc(N(C)c2ccccc2)c2cccc(OCCO)c2n1 | 795
